Measurements as given in US11459323B2, “Monocyclic β-lactam compound for treating bacterial infection” (MEDSHINE DISCOVERY INC., priority 2018, dated 2022).
Read-outs that look alike come from different tables or passages of the source.

Legend:
Experiment in all cases: MIC on clinically isolated bacteria
Format in all cases: cell-based
[1] = system: Pseudomonas aeruginosa M1
Excerpt: (§1) Twenty-five strains of clinically isolated Acinetobacter baumannii and twenty-seven strains of Pseudomonas aeruginosa were respectively selected and used to determine the minimum inhibitory concentration (MIC) of the compounds by micro-liquid dilution method according to the Institute of Clinical and Laboratory Standard (CLSI) requirements.

[2] = system: Pseudomonas aeruginosa W20
Excerpt: as §1

[3] = system: Pseudomonas aeruginosa M4
Excerpt: as §1

[4] = system: Acinetobacter baumannii C427
Excerpt: as §1

[5] = system: Pseudomonas aeruginosa W21
Excerpt: as §1

[6] = system: Acinetobacter baumannii C283
Excerpt: as §1

[7] = system: Pseudomonas aeruginosa C754
Excerpt: as §1

[8] = system: Pseudomonas aeruginosa W23
Excerpt: as §1

[9] = system: Acinetobacter baumannii C313
Excerpt: as §1

[10] = system: Acinetobacter baumannii C357
Excerpt: as §1

[11] = system: Acinetobacter baumannii C279
Excerpt: as §1

[12] = system: Pseudomonas aeruginosa W6
Excerpt: as §1

[13] = system: Acinetobacter baumannii C241
Excerpt: as §1

[14] = system: Acinetobacter baumannii C402
Excerpt: as §1

[15] = system: Pseudomonas aeruginosa W27
Excerpt: as §1

[16] = system: Acinetobacter baumannii C251
Excerpt: as §1

[17] = system: Acinetobacter baumannii C312
Excerpt: as §1

[18] = system: Pseudomonas aeruginosa W4
Excerpt: as §1

[19] = system: Pseudomonas aeruginosa C763
Excerpt: as §1

[20] = system: Pseudomonas aeruginosa C762
Excerpt: as §1

[21] = system: Pseudomonas aeruginosa W1
Excerpt: as §1

Aeruginosa ATCC27853 = conditions: Pseudomonas aeruginosa
Excerpt: as §1

[22] = system: Pseudomonas aeruginosa W13
Excerpt: as §1

[23] = system: Acinetobacter baumannii C332
Excerpt: as §1

[24] = system: Acinetobacter baumannii C390
Excerpt: as §1

[25] = system: Pseudomonas aeruginosa W19
Excerpt: as §1

[26] = system: Acinetobacter baumannii C315
Excerpt: as §1

[27] = system: Pseudomonas aeruginosa C761
Excerpt: as §1

[28] = system: Acinetobacter baumannii C395
Excerpt: as §1

[29] = system: Acinetobacter baumannii C319
Excerpt: as §1

[30] = system: Acinetobacter baumannii C330
Excerpt: as §1

[31] = system: Pseudomonas aeruginosa W46
Excerpt: as §1

[32] = system: Pseudomonas aeruginosa W47
Excerpt: as §1

[33] = system: Acinetobacter baumannii C328
Excerpt: as §1

[34] = system: Acinetobacter baumannii C408
Excerpt: as §1

[35] = system: Acinetobacter baumannii C401
Excerpt: as §1

[36] = system: Acinetobacter baumannii C181
Excerpt: as §1

[37] = system: Pseudomonas aeruginosa W9
Excerpt: as §1

[38] = system: Pseudomonas aeruginosa W28
Excerpt: as §1

[39] = system: Pseudomonas aeruginosa C755
Excerpt: as §1

[40] = system: Pseudomonas aeruginosa W32
Excerpt: as §1

Measured: MIC

CC1(C)[C@H](NC(=O)/C(=N\O[C@@H](COc2ccc3c(c2)CN(/C(=N\[C@@H]2CCCNC2)N[C@@H]2CCCNC2)C3)C(=O)O)c2csc(N)n2)C(=O)N1OS(=O)(=O)O [Compound 46]
> 16 µg/mL: [16]; Acinetobacter baumannii C251, read-out: Minimum Inhibitory Concentration (MIC)
4 µg/mL: [4]; Acinetobacter baumannii C427, read-out: Minimum Inhibitory Concentration (MIC) | [6]; Acinetobacter baumannii C283, read-out: Minimum Inhibitory Concentration (MIC) | [9]; Acinetobacter baumannii C313, read-out: Minimum Inhibitory Concentration (MIC) | [10]; Acinetobacter baumannii C357, read-out: Minimum Inhibitory Concentration (MIC) | [11]; Acinetobacter baumannii C279, read-out: Minimum Inhibitory Concentration (MIC) | [13]; Acinetobacter baumannii C241, read-out: Minimum Inhibitory Concentration (MIC) | [14]; Acinetobacter baumannii C402, read-out: Minimum Inhibitory Concentration (MIC) | [17]; Acinetobacter baumannii C312, read-out: Minimum Inhibitory Concentration (MIC) | [19]; read-out: MIC | [23]; Acinetobacter baumannii C332, read-out: Minimum Inhibitory Concentration (MIC) | [24]; Acinetobacter baumannii C390, read-out: Minimum Inhibitory Concentration (MIC) | [26]; Acinetobacter baumannii C315, read-out: Minimum Inhibitory Concentration (MIC) | [28]; Acinetobacter baumannii C395, read-out: Minimum Inhibitory Concentration (MIC) | [29]; Acinetobacter baumannii C319, read-out: Minimum Inhibitory Concentration (MIC) | [30]; Acinetobacter baumannii C330, read-out: Minimum Inhibitory Concentration (MIC) | [33]; Acinetobacter baumannii C328, read-out: Minimum Inhibitory Concentration (MIC) | [34]; Acinetobacter baumannii C408, read-out: Minimum Inhibitory Concentration (MIC) | [35]; Acinetobacter baumannii C401, read-out: Minimum Inhibitory Concentration (MIC) | [36]; Acinetobacter baumannii C181, read-out: Minimum Inhibitory Concentration (MIC) | [38]; read-out: MIC
0.5 µg/mL: [7]; read-out: MIC | Aeruginosa ATCC27853; Aeruginosa ATCC27853, read-out: MIC | [25]; read-out: MIC | [31]; read-out: MIC | [39]; read-out: MIC
0.25 µg/mL: [5]; read-out: MIC | [8]; read-out: MIC | [22]; read-out: MIC | [27]; read-out: MIC
8 µg/mL: [20]; read-out: MIC
1 µg/mL: [1]; read-out: MIC | [2]; read-out: MIC | [3]; read-out: MIC | [12]; read-out: MIC | [15]; read-out: MIC | [18]; read-out: MIC | [21]; read-out: MIC | [32]; read-out: MIC | [37]; read-out: MIC | [40]; read-out: MIC

CN(C)c1cc(NC(=O)CNC(C)(C)C)c(O)c2c1C[C@H]1C[C@H]3[C@H](N(C)C)C(O)=C(C(N)=O)C(=O)[C@@]3(O)C(O)=C1C2=O [Tigecycline, reference compound]
4 µg/mL: [3] | [39]
2 µg/mL: [13]; Acinetobacter baumannii, C241, read-out: Minimum Inhibitory Concentration (MIC)
1 µg/mL: [4]; Acinetobacter baumannii, C427, read-out: Minimum Inhibitory Concentration (MIC) | [6]; Acinetobacter baumannii, C283, read-out: Minimum Inhibitory Concentration (MIC) | [9]; Acinetobacter baumannii, C313, read-out: Minimum Inhibitory Concentration (MIC) | [10]; Acinetobacter baumannii, C357, read-out: Minimum Inhibitory Concentration (MIC) | [11]; Acinetobacter baumannii, C279, read-out: Minimum Inhibitory Concentration (MIC) | [14]; Acinetobacter baumannii, C402, read-out: Minimum Inhibitory Concentration (MIC) | [17]; Acinetobacter baumannii, C312, read-out: Minimum Inhibitory Concentration (MIC) | [23]; Acinetobacter baumannii, C332, read-out: Minimum Inhibitory Concentration (MIC) | [24]; Acinetobacter baumannii, C390, read-out: Minimum Inhibitory Concentration (MIC) | [26]; Acinetobacter baumannii, C315, read-out: Minimum Inhibitory Concentration (MIC) | [28]; Acinetobacter baumannii, C395, read-out: Minimum Inhibitory Concentration (MIC) | [29]; Acinetobacter baumannii, C319, read-out: Minimum Inhibitory Concentration (MIC) | [30]; Acinetobacter baumannii, C330, read-out: Minimum Inhibitory Concentration (MIC) | [33]; Acinetobacter baumannii, C328, read-out: Minimum Inhibitory Concentration (MIC) | [34]; Acinetobacter baumannii, C408, read-out: Minimum Inhibitory Concentration (MIC) | [35]; Acinetobacter baumannii, C401, read-out: Minimum Inhibitory Concentration (MIC) | [36]; Acinetobacter baumannii, C181, read-out: Minimum Inhibitory Concentration (MIC)
16 µg/mL: [1] | [2] | [8] | [12] | [15] | [21] | [27] | [32] | [37] | [40]
> 16 µg/mL: [19] | [20] | [38]
8 µg/mL: [5] | [7] | [16]; Acinetobacter baumannii, C251, read-out: Minimum Inhibitory Concentration (MIC) | [18] | Aeruginosa ATCC27853; ATCC27853 | [22] | [25] | [31]
